Reference: patent US8574831B2, “Mutational profiles in HIV-1 reverse transcriptase correlated with phenotypic drug resistance” (Virco N.V., priority 2000, dated 2013)

System: HIV with mutations in the HIV protease sequence
Assay: Phenotypic fold resistance to protease inhibitors, protease mutations 84A/84L/84C/54M/54L/54V in a background (Examples 8-13)
Assay type: cell-based, HIV-1
Summary of the method: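 Fold-resistance equals chimeric-virus IC50 divided by IC50 of a parallel wild-type reference HIV-1 strain. Chimeras come from PCR-amplified PR/RT genes recombined into PR/RT-deleted HXB2 proviral DNA inside CD4+ T cells, then cultured with graded drug concentrations.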

CC(C)c1nc(CN(C)C(=O)N[C@H](C(=O)N[C@@H](Cc2ccccc2)C[C@H](O)[C@H](Cc2ccccc2)NC(=O)OCc2cncs2)C(C)C)cs1 [Ritonavir, ritonavir]
mean fold increase in resistance (Table 9 #1, protease genotype WT): 0.6 fold
mean fold increase in resistance (Table 9 #2, protease genotype 10I): 1.15 fold
mean fold increase in resistance (Table 9 #3, protease genotype 46I): 0.8 fold
mean fold increase in resistance (Table 9 #4, protease genotype 46I + 84V): 4.6 fold
mean fold increase in resistance (Table 9 #5, protease genotype 46I + 84A): 51.8 fold
mean fold increase in resistance (Table 9 #6, protease genotype 10I + 46I): 1.5 fold
mean fold increase in resistance (Table 9 #7, protease genotype 10I + 46I + 84V): 11.9 fold
mean fold increase in resistance (Table 9 #8, protease genotype 10I + 46I + 84A): 77.3 fold
mean fold increase in resistance (Table 9 #9, protease genotype 10L/I + 46I + 84A): 114 fold
mean fold increase in resistance (Table 9 #10, protease genotype 10I + 46I + 84A): 44.5 fold
mean fold increase in resistance (Table 9 #11, protease genotype 46I + 71V): 1.4 fold
mean fold increase in resistance (Table 9 #12, protease genotype 46I + 71V + 84V/I): 1.8 fold
mean fold increase in resistance (Table 9 #13, protease genotype 46I + 71V + 84A): 102.2 fold
mean fold increase in resistance (Table 9 #14, protease genotype 10F + 46I + 71V): 4.1 fold
mean fold increase in resistance (Table 9 #15, protease genotype 10I + 46I + 71V + 84V): 45.6 fold
mean fold increase in resistance (Table 9 #16, protease genotype 10I + 46I + 71V + 84A): 114.9 fold
mean fold increase in resistance (Table 9 #17, protease genotype 10V + 46I + 71T + 84A): 91.9 fold
mean fold increase in resistance (Table 9 #18, protease genotype 10I + 46I + 71V + 77I): 1.65 fold
mean fold increase in resistance (Table 9 #19, protease genotype 10I + 46I + 71V + 77I + 84V): 3.1 fold
mean fold increase in resistance (Table 9 #20, protease genotype 10I + 46I + 71V + 77I + 84A): 121.3 fold
mean fold increase in resistance (Table 9 #21, protease genotype 10I + 33L/I + 46I + 71V + 77V/I + 84A): 38.6 fold
mean fold increase in resistance (Table 10 #1, protease genotype 10I + 36I + 71V): 1.2 fold
mean fold increase in resistance (Table 10 #2, protease genotype 10I + 36I + 71I + 84V): 1.5 fold
mean fold increase in resistance (Table 10 #3, protease genotype 10I + 36I + 71I + 84L): 0.8 fold
mean fold increase in resistance (Table 11 #1, protease genotype WT): 0.6 fold
mean fold increase in resistance (Table 11 #2, protease genotype 84V): 2.4 fold
mean fold increase in resistance (Table 11 #3, protease genotype 84C): 2.9 fold
mean fold increase in resistance (Table 11 #4, protease genotype 10I): 1.2 fold
mean fold increase in resistance (Table 11 #5, protease genotype 10I + 84V): 6.5 fold
mean fold increase in resistance (Table 11 #6, protease genotype 10I + 84C): 5.4 fold
mean fold increase in resistance (Table 11 #7, protease genotype 77I): 0.4 fold
mean fold increase in resistance (Table 11 #8, protease genotype 77I + 84V): 5.0 fold
mean fold increase in resistance (Table 11 #9, protease genotype 77I + 84C): 2.8 fold
mean fold increase in resistance (Table 11 #10, protease genotype 77I + 84C): 3.2 fold
mean fold increase in resistance (Table 11 #11, protease genotype 10I + 24I + 36I + 46I + 71V + 84C): 47 fold
Fold change in IC50 (Table 12, V19263, genotype 77I): 0.4 fold
Fold change in IC50 (Table 12, V20160, genotype WT): 0.6 fold
Fold change in IC50 (Table 12, V021667, genotype 10I): 1.2 fold
Fold change in IC50 (Table 12, V030496, genotype 10I + 77I): 0.5 fold
Fold change in IC50 (Table 12, V048869, genotype 10I + 54M + 77I + 90M): 20.0 fold
Fold change in IC50 (Table 12, V048872, genotype 33F + 54M + 77I + 90M): 8.7 fold
Fold change in IC50 (Table 12, V048873, genotype 33F + 54M + 77I + 90M): 11.4 fold
Fold change in IC50 (Table 12, V048877, genotype 10I + 33F + 77I + 90M): 20.5 fold
Fold change in IC50 (Table 12, V048878, genotype 10I + 33F + 54M + 71V + 77I + 90M): 17.2 fold
Fold change in IC50 (Table 12, V048879, genotype 10I + 33F + 54M + 71V + 77I + 90M): 74.0 fold
Fold change in IC50 (Table 12, V048880, genotype 10I + 33F + 77I + 90M): 3.6 fold
Fold change in IC50 (Table 12, V052940, genotype 71V): 0.4 fold
Fold change in IC50 (Table 12, V052942, genotype 10I + 71V): 0.6 fold
Fold change in IC50 (Table 12, V052943, genotype 10I + 90M): 1.8 fold
Fold change in IC50 (Table 12, V052944, genotype 10I + 90M): 1.5 fold
Fold change in IC50 (Table 12, V052945, genotype 77I + 90M): 1.9 fold
Fold change in IC50 (Table 12, V052946, genotype 71V + 90M): 2.0 fold
Fold change in IC50 (Table 12, V052947, genotype 10I + 77I + 90M): 6.9 fold
Fold change in IC50 (Table 12, V052948, genotype 10I + 71V + 90M): 10.5 fold
Fold change in IC50 (Table 12, V052949, genotype 10I + 71V + 77I + 90M): 2.3 fold
Fold change in IC50 (Table 12, V052950, genotype 33F): 1.5 fold
Fold change in IC50 (Table 12, V052951, genotype 33F + 77I): 0.3 fold
Fold change in IC50 (Table 12, V052953, genotype 10I + 33F + 77I): 1.1 fold
Fold change in IC50 (Table 12, V052954, genotype 33F + 77I + 90M): 2.2 fold
Fold change in IC50 (Table 12, V052955, genotype 33F + 71V + 90M): 77.9 fold
Fold change in IC50 (Table 12, V052977, genotype 10I + 33F + 54M): 35.5 fold
Fold change in IC50 (Table 12, V052978, genotype 10I + 33F + 54M + 71V + 90M): 17.9 fold
Fold change in IC50 (Table 12, V052979, genotype 10I + 54M): 20.0 fold
Fold change in IC50 (Table 12, V052980, genotype 10I + 54M + 90M): 4.1 fold
Fold change in IC50 (Table 12, V052981, genotype 10I + 54M + 71V + 90M): 9.4 fold
Fold change in IC50 (Table 12, V052982, genotype 10I + 54M + 71V + 77I + 90M): 13.4 fold
Fold change in IC50 (Table 12, V053832, genotype 10I + 33F): 2.9 fold
